Measured values taken from ChEMBL document CHEMBL4483862, “Open-source discovery of chemical leads for next-generation chemoprotective antimalarials” (2018).

Tested on: Plasmodium berghei
Assay: Luciferase/luciferin-expressing antifolate-resistant parasites were used to infect a culture of HepG2 cells that were pre-incubated with compounds. Infected hepatocytes emit light due to the luciferase reaction. Assay results are presented as the percent inhibition of light emission compared to control. […]
Assay type: functional
Settings: sporozoite; for IC90: read-out: LUCIFERASE INFECTION ASSAY - IC90

NS(=O)(=O)c1ccc(CCNc2nn3c(-c4ccc(F)c(Cl)c4)cnc3s2)cc1
IC50 (FFLUC_HILL_SLOPE 96, FFLUC_R_SQUARED 0.344, HEPG2TOX_HILL_SLOPE 2.59, HEPG2TOX_R_SQUARED 0.44, read-out: LUCIFERASE INFECTION ASSAY - IC50): > 7.3 µM | IC90: > 7.3 µM

O=[N+]([O-])c1cnc(Sc2nc3cc(Cl)ccc3s2)s1
IC50 (FFLUC_HILL_SLOPE 97.7, FFLUC_R_SQUARED 0.0466, read-out: LUCIFERASE INFECTION ASSAY - IC50): > 10 µM | IC90: > 10 µM

O=C(NC(=S)NNc1ncc(C(F)(F)F)cc1Cl)c1ccccc1
IC50 (FFLUC_HILL_SLOPE 148, FFLUC_R_SQUARED 0.758, HEPG2TOX_HILL_SLOPE 0.501, HEPG2TOX_R_SQUARED 0.887, PBLUC_HILL_SLOPE 13.6, PBLUC_R_SQUARED 0.819, read-out: LUCIFERASE INFECTION ASSAY - IC50): 0.321 µM | IC90: 0.377 µM

COc1cc(Cl)c(C)cc1NC(=O)Cn1c(=O)c(=O)n(Cc2ccccc2)c2ccc(Cl)cc21
IC50 (FFLUC_HILL_SLOPE 92.5, FFLUC_R_SQUARED 0.216, PBLUC_HILL_SLOPE 2.05, PBLUC_R_SQUARED 0.328, read-out: LUCIFERASE INFECTION ASSAY - IC50): 4.54 µM | IC90: > 10 µM

O=C(/C=C/c1ccc(-n2cncn2)c(F)c1)c1cccc(OC(F)F)c1
IC50 (FFLUC_HILL_SLOPE 115, FFLUC_R_SQUARED 0.0591, PBLUC_HILL_SLOPE 174, PBLUC_R_SQUARED 0.383, read-out: LUCIFERASE INFECTION ASSAY - IC50): 5.39 µM | IC90: 5.45 µM

CCc1nnc(SCc2cc(=O)n3c(C)csc3n2)[nH]1
IC50 (FFLUC_HILL_SLOPE 120, FFLUC_R_SQUARED 0.18, read-out: LUCIFERASE INFECTION ASSAY - IC50): > 10 µM | IC90: > 10 µM

CC(C)(C)c1ccc(CSc2nnc(-c3ccco3)n2-c2ccc(OCc3ccccc3)cc2)cc1
IC50 (FFLUC_HILL_SLOPE 93.6, FFLUC_R_SQUARED 0.0881, read-out: LUCIFERASE INFECTION ASSAY - IC50): > 6.66 µM | IC90: > 6.66 µM

O=[N+]([O-])c1cnc(Sc2ccc(C(F)(F)F)cn2)s1
IC50 (FFLUC_HILL_SLOPE 78.7, FFLUC_R_SQUARED 0.547, HEPG2TOX_HILL_SLOPE 11.7, HEPG2TOX_R_SQUARED 0.958, PBLUC_HILL_SLOPE 15.1, PBLUC_R_SQUARED 0.404, read-out: LUCIFERASE INFECTION ASSAY - IC50): 9.04 µM | IC90: 10.5 µM

Cc1ccc(N2C(=O)C=CC2=O)cc1Cl
IC50 (FFLUC_HILL_SLOPE 79.3, FFLUC_R_SQUARED 0.497, PBLUC_HILL_SLOPE 1.92, PBLUC_R_SQUARED 0.35, read-out: LUCIFERASE INFECTION ASSAY - IC50): 6.38 µM | IC90: > 14.9 µM

Cn1ccnc1Sc1c[nH]c(=S)nc1-c1ccc(Cl)cc1
IC50 (FFLUC_HILL_SLOPE 122, FFLUC_R_SQUARED 0.312, PBLUC_HILL_SLOPE 4.61, PBLUC_R_SQUARED 0.38, read-out: LUCIFERASE INFECTION ASSAY - IC50): 5.61 µM | IC90: 9.04 µM

O=C1C=CC(=O)N1c1cccc(Cl)c1Cl
IC50 (FFLUC_HILL_SLOPE 90.3, FFLUC_R_SQUARED 0.368, read-out: LUCIFERASE INFECTION ASSAY - IC50): > 13.6 µM | IC90: > 13.6 µM

Cc1nn(-c2ccccc2)c(C)c1-c1nc(-c2ccccc2)no1
IC50 (FFLUC_HILL_SLOPE 123, FFLUC_R_SQUARED 0.665, PBLUC_HILL_SLOPE 0.902, PBLUC_R_SQUARED 0.808, read-out: LUCIFERASE INFECTION ASSAY - IC50): 0.508 µM | IC90: 5.81 µM

Cc1nc(SCc2cccc(C(F)(F)F)c2)c2c(-c3cccs3)csc2n1
IC50 (FFLUC_HILL_SLOPE 83.3, FFLUC_R_SQUARED 0.372, read-out: LUCIFERASE INFECTION ASSAY - IC50): > 10 µM | IC90: > 10 µM

CCOc1cc2c(cc1CNC(=O)Cn1cnc3c(cnn3-c3ccccc3)c1=O)OC(C)C2 (stereo not given)
IC50 (FFLUC_HILL_SLOPE 95.3, FFLUC_R_SQUARED 0.504, HEPG2TOX_HILL_SLOPE 1.9, HEPG2TOX_R_SQUARED 0.749, read-out: LUCIFERASE INFECTION ASSAY - IC50): > 10 µM | IC90: > 10 µM

CCOC(=O)c1c(-c2ccc(F)cc2)csc1NC(=O)CSc1nc2c(c(CC)c1C#N)C(=O)CC(C)(C)C2
IC50 (FFLUC_HILL_SLOPE 86.7, FFLUC_R_SQUARED 0.56, PBLUC_HILL_SLOPE 13.6, PBLUC_R_SQUARED 0.125, read-out: LUCIFERASE INFECTION ASSAY - IC50): 8.71 µM | IC90: > 10 µM

CCOC(=O)/C=c1\s/c(=C\c2ccc(N3CCCCC3)c([N+](=O)[O-])c2)c(=O)n1CC(=O)N1CCC(C)CC1
IC50 (FFLUC_HILL_SLOPE 86.1, FFLUC_R_SQUARED 0.469, PBLUC_HILL_SLOPE 14.4, PBLUC_R_SQUARED 0.0813, read-out: LUCIFERASE INFECTION ASSAY - IC50): > 10 µM | IC90: > 10 µM

Cc1ccc2nc(NC(=O)c3ccc(C#N)cc3)c(C(=O)NC3CCCC3)n2c1
IC50 (FFLUC_HILL_SLOPE 93.7, FFLUC_R_SQUARED 0.282, HEPG2TOX_HILL_SLOPE 0.845, HEPG2TOX_R_SQUARED 0.968, PBLUC_HILL_SLOPE 14.4, PBLUC_R_SQUARED 0.874, read-out: LUCIFERASE INFECTION ASSAY - IC50): 0.288 µM | IC90: 0.336 µM

COc1ccc(C2=C(NCCc3ccccc3)c3ccccc3C2=O)cc1
IC50 (FFLUC_HILL_SLOPE 105, FFLUC_R_SQUARED 0.774, PBLUC_HILL_SLOPE 1.53, PBLUC_R_SQUARED 0.754, read-out: LUCIFERASE INFECTION ASSAY - IC50): 0.096 µM | IC90: 0.404 µM

Cc1occc1C(=O)NN=CC1C(=O)N(Cc2ccccc2)C(=O)c2ccccc21 (stereo not given)
IC50 (FFLUC_HILL_SLOPE 77.8, FFLUC_R_SQUARED 0.432, HEPG2TOX_HILL_SLOPE 1.95, HEPG2TOX_R_SQUARED 0.861, PBLUC_HILL_SLOPE 6.12, PBLUC_R_SQUARED 0.278, read-out: LUCIFERASE INFECTION ASSAY - IC50): 5.38 µM | IC90: 7.7 µM

O=C(COC(=O)c1ccccc1NCCO)NC1c2ccccc2-c2ccccc21
IC50 (FFLUC_HILL_SLOPE 129, FFLUC_R_SQUARED 0.809, HEPG2TOX_HILL_SLOPE 1.96, HEPG2TOX_R_SQUARED 0.833, PBLUC_HILL_SLOPE 15.2, PBLUC_R_SQUARED 0.28, read-out: LUCIFERASE INFECTION ASSAY - IC50): 3.52 µM | IC90: 4.07 µM

O=c1[nH]nc(Sc2ncc([N+](=O)[O-])s2)n1-c1ccccc1C(F)(F)F
IC50 (FFLUC_HILL_SLOPE 106, FFLUC_R_SQUARED 0.375, read-out: LUCIFERASE INFECTION ASSAY - IC50): > 8.48 µM | IC90: > 8.48 µM

CN(C)c1ccc(/C=c2\s/c(=C\C#N)n(CC(=O)c3ccccc3)c2=O)cc1
IC50 (FFLUC_HILL_SLOPE 120, FFLUC_R_SQUARED 0.489, HEPG2TOX_HILL_SLOPE 0.599, HEPG2TOX_R_SQUARED 0.179, PBLUC_HILL_SLOPE 1.11, PBLUC_R_SQUARED 0.152, read-out: LUCIFERASE INFECTION ASSAY - IC50): 5.8 µM | IC90: > 10 µM

COc1cc(C2NCC(c3ccccc3Cl)c3c2[nH]c2ccccc32)ccc1OCc1cccc(C(F)(F)F)c1 (stereo not given)
IC50 (FFLUC_HILL_SLOPE 97, FFLUC_R_SQUARED 0.0371, HEPG2TOX_HILL_SLOPE 1.2, HEPG2TOX_R_SQUARED 0.293, PBLUC_HILL_SLOPE 8.25, PBLUC_R_SQUARED 0.22, read-out: LUCIFERASE INFECTION ASSAY - IC50): 8.46 µM | IC90: > 10 µM

CCCNC(=O)c1c(NC(=O)c2cccc(Cl)c2)nc2ccccn12
IC50 (FFLUC_HILL_SLOPE 126, FFLUC_R_SQUARED 0.738, HEPG2TOX_HILL_SLOPE 0.804, HEPG2TOX_R_SQUARED 0.952, PBLUC_HILL_SLOPE 15.4, PBLUC_R_SQUARED 0.753, read-out: LUCIFERASE INFECTION ASSAY - IC50): 0.96 µM | IC90: 1.11 µM

CCCCNC(=O)c1c(NC(=O)c2cccc(C)c2)nc2ccc(C)cn12
IC50 (FFLUC_HILL_SLOPE 134, FFLUC_R_SQUARED 0.564, HEPG2TOX_HILL_SLOPE 2.72, HEPG2TOX_R_SQUARED 0.791, PBLUC_HILL_SLOPE 3.36, PBLUC_R_SQUARED 0.556, read-out: LUCIFERASE INFECTION ASSAY - IC50): 1.65 µM | IC90: 3.17 µM

O=S(=O)(c1ccc(-c2cc(-c3ccccc3Cl)c3cc(Cl)ccc3n2)cc1)N1CCCCC1
IC50 (FFLUC_HILL_SLOPE 79.3, FFLUC_R_SQUARED 0.555, read-out: LUCIFERASE INFECTION ASSAY - IC50): > 10 µM | IC90: > 10 µM

O=C(NNC(=O)c1csc(COc2ccccc2Cl)n1)c1ccc(Cl)cc1
IC50 (FFLUC_HILL_SLOPE 94.2, FFLUC_R_SQUARED 0.775, HEPG2TOX_HILL_SLOPE 11.4, HEPG2TOX_R_SQUARED 0.575, PBLUC_HILL_SLOPE 4.49, PBLUC_R_SQUARED 0.337, read-out: LUCIFERASE INFECTION ASSAY - IC50): 4.37 µM | IC90: 7.14 µM

O=C(Nc1ccc(OC(F)(F)F)cc1)Nc1ccccc1Sc1ncc([N+](=O)[O-])cc1C(F)(F)F
IC50 (FFLUC_HILL_SLOPE 90.5, FFLUC_R_SQUARED 0.394, read-out: LUCIFERASE INFECTION ASSAY - IC50): > 6.37 µM | IC90: > 6.37 µM

O=C(c1cc(F)cc(F)c1)N1[C@@H]2CC[C@@H](C2)[C@H]1c1nc2c(OCCC3CCCCC3)cccc2[nH]1
IC50 (FFLUC_HILL_SLOPE 146, FFLUC_R_SQUARED 0.488, HEPG2TOX_HILL_SLOPE 10.5, HEPG2TOX_R_SQUARED 0.576, PBLUC_HILL_SLOPE 12.2, PBLUC_R_SQUARED 0.352, read-out: LUCIFERASE INFECTION ASSAY - IC50): 9.64 µM | IC90: > 10 µM

N#Cc1c(N2CCCCCC2)nc(N)c2c(N)nc3c(c12)CC(=O)N3c1ccc(F)cc1
IC50 (FFLUC_HILL_SLOPE 141, FFLUC_R_SQUARED 0.168, PBLUC_HILL_SLOPE 30.3, PBLUC_R_SQUARED 0.605, read-out: LUCIFERASE INFECTION ASSAY - IC50): 1.1 µM | IC90: 1.19 µM
